According to PMC12431657, “Discovery and mechanistic insights of dibenzoylmethane as a broad spectrum inhibitor of coronavirus” (PLOS Pathogens, 2025):
Values joined by “and” are separate entries in the source; they are usually repeats but may differ in a detail not shown here. Identical values can stand only once. Like-named read-outs stand apart in the source and are kept apart here. Peptide text beside a SMILES is read from it. * marks the point of attachment. Cbz = O=C(OCc1ccccc1)*; CH2F = FC*

Legend:
HCoV-229E [1] = assay: Antiviral activity in vitro, qRT-PCR, HCoV-229E in MRC-5 cells; assay type: cell-based; conditions: for EC50: Human coronavirus 229E, MRC5, 24 h, read-out: EC50 HCoV-229E (MRC-5); for HCoV-229E, MRC-5: inhibition at the concentration (Fig2B): replicates
HCoV-OC43 [2] = conditions: for number of viral RNA copies in HCoV-OC43-infected mice: columbianadin 50 mpk QD, erythromycin estolate 300 mpk QD
airway inflammation = conditions: 50 mpk; cited from earlier work
HCoV-229E [3] = assay: Antiviral activity in vitro, viral RNA copies by qRT-PCR, HCoV-229E in Huh-7 cells; assay type: cell-based; conditions: for EC50: Human coronavirus 229E, Huh-7, 24 h, read-out: EC50 HCoV-229E (Huh-7)
HCoV-OC43 [4] = assay: Antiviral activity in vitro, qRT-PCR, HCoV-OC43 in RD cells; assay type: cell-based; conditions: for EC50: Betacoronavirus 1, OC43, RD, 24 h, read-out: EC50 HCoV-OC43 (RD)
HCoV-OC43 [5] = assay: Antiviral activity in vitro, qRT-PCR, HCoV-OC43 in Huh-7 cells; assay type: cell-based; conditions: for EC50: Betacoronavirus 1, OC43, Huh-7, 24 h, read-out: EC50 HCoV-OC43 (Huh-7); for HCoV-OC43, Huh-7: inhibition at the concentration (Fig2B): replicates
Huh-7 cells [6] = assay: Cytotoxicity assay (CCK-8), Huh-7 cells
Huh-7 cells [7] = test system: Huh-7 cells; parameters: unit not given beside the values
caspase-6 = target: T1, caspase-6 (Homo sapiens, UniProt P55212); assay type: cell-based
T1 construct: endogenous in cells
T1 sequence (P55212 24-293): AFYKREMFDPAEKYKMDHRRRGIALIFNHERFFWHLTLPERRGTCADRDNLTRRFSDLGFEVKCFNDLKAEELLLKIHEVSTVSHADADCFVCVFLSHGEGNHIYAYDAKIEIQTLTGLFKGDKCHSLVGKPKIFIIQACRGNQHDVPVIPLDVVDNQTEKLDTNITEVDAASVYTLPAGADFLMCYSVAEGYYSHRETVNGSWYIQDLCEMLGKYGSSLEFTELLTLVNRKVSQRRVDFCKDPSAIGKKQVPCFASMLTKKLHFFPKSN

HCoV-OC43 [8] = assay: HCoV-OC43 nucleocapsid protein and caspase-6 in infected cells (Western blot); assay type: cell-based; conditions: cells pretreated with serially diluted compound
HCoV-OC43 [9] = assay type: cell-based
[10] = erythromycin estolate exceeding 300 mpk, veratramine exceeding 10 mpk; cited from earlier work
[11] = conc. 0.1 (unit not given), replicates
[12] = conc. 0.2 (unit not given), replicates
[13] = conc. 0.7 (unit not given), replicates
[14] = conc. 2.2 (unit not given), replicates
[15] = conc. 6.7 (unit not given), replicates
[16] = conc. 20 (unit not given), replicates

## C/C=C(/C)C(=O)OC(C)(C)[C@@H]1Cc2c(ccc3ccc(=O)oc23)O1 [Columbianadin, columbianadin]
HCoV-229E [1]
  EC50: 1.55 µM
HCoV-229E [1]; conc. 0.1 (unit not given)
  HCoV-229E, MRC-5: inhibition at the concentration (Fig2B): 35.3 and 18.1 and 41.4
HCoV-229E [1]; conc. 0.2 (unit not given)
  HCoV-229E, MRC-5: inhibition at the concentration (Fig2B): 32.0 and 58.2
HCoV-229E [1]; conc. 0.7 (unit not given)
  HCoV-229E, MRC-5: inhibition at the concentration (Fig2B): 17.5 and 18.6 and 52.2
HCoV-229E [1]; conc. 2.2 (unit not given)
  HCoV-229E, MRC-5: inhibition at the concentration (Fig2B): 63.2 and 52.3 and 54.8
HCoV-229E [1]; conc. 6.7 (unit not given)
  HCoV-229E, MRC-5: inhibition at the concentration (Fig2B): 83.3 and 82.1 and 80.5
HCoV-229E [1]; conc. 20.0 (unit not given)
  HCoV-229E, MRC-5: inhibition at the concentration (Fig2B): 94.9 and 92.9 and 95.1
HCoV-OC43 [2]; Columbianadin 50 mpk oral QD, day 0, one value per mouse
  Body weight changes: 99.0 (4×) and 102.0 (2×)
HCoV-OC43 [2]
  number of viral RNA copies in HCoV-OC43-infected mice: did not significantly reduce
Airway inflammation
  airway inflammation in mice: suppress airway inflammation
HCoV-229E [3]
  EC50: < 0.08 µM
HCoV-229E [3]; [11]
  EC50 (229E, Huh-7): inhibition at the concentration: 58.8 and 59.6 and 58
HCoV-229E [3]; [12]
  EC50 (229E, Huh-7): inhibition at the concentration: 70.5 and 77.4 and 76.1
HCoV-229E [3]; [13]
  EC50 (229E, Huh-7): inhibition at the concentration: 68 and 72.5 and 61.2
HCoV-229E [3]; [14]
  EC50 (229E, Huh-7): inhibition at the concentration: 74.2 and 70.6 and 86.9
HCoV-229E [3]; [15]
  EC50 (229E, Huh-7): inhibition at the concentration: 89.7 and 91.5 and 80.4
HCoV-229E [3]; [16]
  EC50 (229E, Huh-7): inhibition at the concentration: 92.4 and 94.9 and 95
HCoV-OC43 [4]
  EC50: 2.22 µM
HCoV-OC43 [4]; [11]
  EC50 (OC43, RD): inhibition at the concentration: -25.3 and -42.7 and -34.3
HCoV-OC43 [4]; [13]
  EC50 (OC43, RD): inhibition at the concentration: -23.9 and 2.7 and -3.5
HCoV-OC43 [4]; [14]
  EC50 (OC43, RD): inhibition at the concentration: 49.6 and 48.7 and 52.3
HCoV-OC43 [4]; [15]
  EC50 (OC43, RD): inhibition at the concentration: 93.7 and 94.2 and 94.0
HCoV-OC43 [4]; [16]
  EC50 (OC43, RD): inhibition at the concentration: 99.8
HCoV-OC43 [5]
  EC50: 0.19 µM
HCoV-OC43 [5]; conc. 0.1 (unit not given)
  HCoV-OC43, Huh-7: inhibition at the concentration (Fig2B): 48.4 and 50.8 (2×)
HCoV-OC43 [5]; conc. 0.2 (unit not given)
  HCoV-OC43, Huh-7: inhibition at the concentration (Fig2B): 30.0 and 36.0 and 38.1
HCoV-OC43 [5]; conc. 0.7 (unit not given)
  HCoV-OC43, Huh-7: inhibition at the concentration (Fig2B): 73.5 and 75.0 and 75.6
HCoV-OC43 [5]; conc. 2.2 (unit not given)
  HCoV-OC43, Huh-7: inhibition at the concentration (Fig2B): 94.2 and 94.1 and 94.4
HCoV-OC43 [5]; conc. 6.7 (unit not given)
  HCoV-OC43, Huh-7: inhibition at the concentration (Fig2B): 98.5 (2×) and 98.6
HCoV-OC43 [5]; conc. 20.0 (unit not given)
  HCoV-OC43, Huh-7: inhibition at the concentration (Fig2B): 98.4 and 98.3 (2×)

## CCC/C=C1\OC(=O)C2=C1CC[C@H]1[C@H]3C=C4C(=O)O/C(=C\CCC)[C@@]4(CC3)[C@@H]21 [levistolide A]
Huh-7 cells [6]
  selectivity index (SI): below 25
Huh-7 cells [7]
  CC50 (Huh-7): dose-response value per replicate: 17.6

## COc1c(CC=C(C)C)c(O)cc2oc(=O)c3c4ccc(O)cc4oc3c12 [neoglycyrol]
Huh-7 cells [6]
  selectivity index (SI): below 25
Huh-7 cells [7]
  CC50 (Huh-7): dose-response value per replicate: 37.8

## CC[C@H](C)[C@H](NC(=O)[C@H](CCC(=O)OC)NC(=O)[C@@H](NC(=O)OCc1ccccc1)C(C)C)C(=O)N[C@@H](CC(=O)OC)C(=O)CF [Z-VEID-FMK, reference compound] (Cbz-VE(OMe)ID(OMe)-CH2F)
caspase-6; time point 0, replicates
  Caspase-6 activity (Fig5J): 8.3 and 9.2 and 8.8
caspase-6; time point 2, replicates
  Caspase-6 activity (Fig5J): 12.5 and 11.5 and 12.1
caspase-6; time point 4, replicates
  Caspase-6 activity (Fig5J): 11.7 and 13.0 (2×)
caspase-6; time point 6, replicates
  Caspase-6 activity (Fig5J): 9.9 and 10.2 and 9.5
caspase-6; time point 8, replicates
  Caspase-6 activity (Fig5J): 9.8 and 9.0 and 8.1
HCoV-OC43 [8]
  virus replication (nucleocapsid protein, Western blot): inhibited virus replication
HCoV-OC43 [9]; RD cells
  antiviral activity in CASP6 knockout cell pools: decreased
HCoV-OC43 [9]; concentration 2, RD-Scramble cells
  Viral inhibition (Fig5K): 58.3 and 64.9 and 64.7
HCoV-OC43 [9]; concentration 20, RD-Scramble cells
  Viral inhibition (Fig5K): 67.9 and 79.5 and 81.6

## COc1ccc2cc1Oc1ccc(cc1)C[C@H]1c3cc(c(OC)cc3CCN1C)Oc1c(OC)c(OC)cc3c1[C@H](C2)N(C)CC3 [tetrandrine]
Huh-7 cells [6]
  selectivity index (SI): below 25
Huh-7 cells [7]; human
  CC50 (Huh-7): dose-response value per replicate: 114.8

## Cc1c([C@H](C)[C@@H]2NC[C@@H](C)C[C@H]2O)ccc2c1C[C@H]1[C@H]2CC=C2C[C@@H](O)CC[C@@]21C [Veratramine, veratramine]
HCoV-229E [1]
  EC50: 0.6 µM
HCoV-OC43 [2]; mouse, in vivo
  Body weight changes: 98.5
[10]
  safe use in antitumour mouse models: safely used
HCoV-229E [3]
  EC50 (229E, Huh-7): inhibition at the concentration: 93.4
  EC50: < 0.08 µM
HCoV-OC43 [4]
  EC50 (OC43, RD): inhibition at the concentration: 99.8 and 99.2
  EC50: 0.25 µM
HCoV-OC43 [5]
  EC50: < 0.08 µM

## CCC(=O)O[C@H]1[C@H](O[C@@H]2[C@@H](C)[C@H](O[C@H]3C[C@@](C)(OC)[C@@H](O)[C@H](C)O3)[C@@H](C)C(=O)O[C@H](CC)[C@@](C)(O)[C@H](O)[C@@H](C)C(=O)[C@H](C)C[C@@]2(C)O)O[C@H](C)C[C@@H]1N(C)C [Erythromycin estolate, erythromycin estolate, reference compound]
HCoV-229E [1]
  EC50: 9.21 µM
HCoV-229E [1]; conc. 0.1 (unit not given)
  HCoV-229E, MRC-5: inhibition at the concentration (Fig2B): 0.6 and 0.5 and 1.3
HCoV-229E [1]; conc. 0.2 (unit not given)
  HCoV-229E, MRC-5: inhibition at the concentration (Fig2B): 18.6 and 2.4 and -3.2
HCoV-229E [1]; conc. 0.7 (unit not given)
  HCoV-229E, MRC-5: inhibition at the concentration (Fig2B): 2.2 and 1.5 and 26.7
HCoV-229E [1]; conc. 2.2 (unit not given)
  HCoV-229E, MRC-5: inhibition at the concentration (Fig2B): 3.2 and -1.4 and 0.1
HCoV-229E [1]; conc. 6.7 (unit not given)
  HCoV-229E, MRC-5: inhibition at the concentration (Fig2B): 0.7 and 0.9 and 1.2
HCoV-229E [1]; conc. 20.0 (unit not given)
  HCoV-229E, MRC-5: inhibition at the concentration (Fig2B): 90.1 and 91.7 and 86.2
HCoV-OC43 [2]
  number of viral RNA copies in HCoV-OC43-infected mice: did not significantly reduce
[10]
  safe use in antitumour mouse models: safely used
HCoV-229E [3]
  EC50: 3.04 µM
HCoV-229E [3]; [11]
  EC50 (229E, Huh-7): inhibition at the concentration: 56.8 and 60.1 and 43.4
HCoV-229E [3]; [12]
  EC50 (229E, Huh-7): inhibition at the concentration: 31.4 and 41.8 and 52.9
HCoV-229E [3]; [13]
  EC50 (229E, Huh-7): inhibition at the concentration: 61.1 and 42.4 and 25.7
HCoV-229E [3]; [14]
  EC50 (229E, Huh-7): inhibition at the concentration: 61.7 and 57.1 and 74.9
HCoV-229E [3]; [15]
  EC50 (229E, Huh-7): inhibition at the concentration: 79.9 and 80.4 and 68.3
HCoV-229E [3]; [16]
  EC50 (229E, Huh-7): inhibition at the concentration: 82.8 and 90.2 and 91.5
HCoV-OC43 [4]
  EC50: 0.46 µM
HCoV-OC43 [4]; [11]
  EC50 (OC43, RD): inhibition at the concentration: -62.2 and -76.2 (2×)
HCoV-OC43 [4]; [12]
  EC50 (OC43, RD): inhibition at the concentration: 31.5 and 23.3 and 28
HCoV-OC43 [4]; [13]
  EC50 (OC43, RD): inhibition at the concentration: 73.9 and 79.2 and 79.3
HCoV-OC43 [4]; [14]
  EC50 (OC43, RD): inhibition at the concentration: 69.6 and 71.7 and 71.9
HCoV-OC43 [4]; [15]
  EC50 (OC43, RD): inhibition at the concentration: 83.9 and 85 and 84.5
HCoV-OC43 [4]; [16]
  EC50 (OC43, RD): inhibition at the concentration: 98.4 and 98.5
HCoV-OC43 [5]
  EC50: 0.73 µM
HCoV-OC43 [5]; conc. 0.2 (unit not given)
  HCoV-OC43, Huh-7: inhibition at the concentration (Fig2B): 18.4 and 11.5 and -3.5
HCoV-OC43 [5]; conc. 0.7 (unit not given)
  HCoV-OC43, Huh-7: inhibition at the concentration (Fig2B): 62.9 and 63.5 and 57.4
HCoV-OC43 [5]; conc. 2.2 (unit not given)
  HCoV-OC43, Huh-7: inhibition at the concentration (Fig2B): 73.5 and 73.6 and 72.3
HCoV-OC43 [5]; conc. 6.7 (unit not given)
  HCoV-OC43, Huh-7: inhibition at the concentration (Fig2B): 95.6 and 95.5 and 95.7
HCoV-OC43 [5]; conc. 20.0 (unit not given)
  HCoV-OC43, Huh-7: inhibition at the concentration (Fig2B): 98.3 (2×) and 98.1
